{"source": "paper PMC7982615", "about": "“Phase 1 study of telisotuzumab vedotin in Japanese patients with advanced solid tumors” (Cancer Medicine, 2021)", "key": {"[1]": {"test": "Pharmacokinetics of teliso‐v conjugate and MMAE, noncompartmental", "assay_type": "in vivo, human", "conditions": "for AUCinf, conjugate / Cmax, conjugate: geometric mean (%CV); for t1/2, conjugate: harmonic mean (min-max); for Tmax, conjugate: median (min-max)", "method": "PK samples were also collected on cycles 2 and 4 predose and approximately 30 minutes after the end of infusion on day 1. PK parameters such as peak concentration (Cmax), time to peak concentration, area under the concentration‐time curve (AUC), and terminal half‐life (t1/2) were determined using noncompartmental methods."}, "advanced solid tumors [2]": {"test_system": "advanced solid tumors", "test": "Preliminary antitumor activity, RECIST version 1.1", "assay_type": "in vivo, human", "conditions": "for PFS estimate at 6 months / Median PFS / Median duration of overall response / PFS estimate at 9 months: [95% CI]; for Median PFS: Kaplan–Meier", "from_the_text": "Evaluation of tumor response to determine the objective response rate (ORR), progression‐free survival (PFS), and duration of response was based on RECIST version 1.1 criteria.\nAll data were summarized and tabulated by dose cohort. Categoric data were summarized in terms of frequency counts and percentages. Continuous data were summarized using descriptive statistics, including number of observations, mean, standard deviation, median, minimum, and maximum. No formal statistical analysis was performed for efficacy variables, which were all exploratory in nature. ORR was defined as the proportion of patients with a confirmed partial response (PR) or complete response (CR). Duration of response was defined as time from a patient's initial objective response to the first date of disease progression (PD) or death. The overall disease control rate was defined as the proportion of patients with CR, PR, or stable disease (SD). […] PFS was estimated using the Kaplan–Meier method. Efficacy analyses are presented with two‐sided exact 95% binomial CI."}, "advanced solid tumors [3]": {"test_system": "advanced solid tumors", "conditions": "cited from earlier work"}, "[4]": {"conditions": "first administration, cycle 1, across 2.4 and 2.7 mg/kg"}, "[5]": {"conditions": "total, N = 9, listed as telisotuzumab vedotin"}, "[6]": {"conditions": "total, N = 9, listed as teliso-v"}}, "note": "Where two headings read alike, the source gives them in different places."}
{"substance": "Teliso‐v: antibody‐drug conjugate: anti–c‐Met humanized monoclonal antibody ABT‐700 coupled to monomethyl auristatin E through a valine‐citrulline linker, drug:antibody ratio approximately three", "values": [{"measurement": "Dose proportionality of systemic exposure", "setting": "[1]; 2.4 and 2.7 mg/kg, cycle 1", "value": "approximately dose proportional"}, {"measurement": "t1/2", "setting": "[1]; N = 9, both dose levels", "value": "72 to 96", "unit": "h"}, {"measurement": "AUCinf, conjugate", "setting": "[1]; cycle 1, 2.4 mg/kg IV, n = 3", "value": "4437 (19) µg*h/mL"}, {"measurement": "Cmax, conjugate", "setting": "[1]; cycle 1, 2.4 mg/kg IV, n = 3", "value": "55.5 (26) µg/mL"}, {"measurement": "t1/2, conjugate", "setting": "[1]; cycle 1, 2.4 mg/kg IV, n = 3", "value": "4.18 (3.8–4.7) days"}, {"measurement": "Tmax, conjugate", "setting": "[1]; cycle 1, 2.4 mg/kg IV, n = 3", "value": "1 (1–1) h"}, {"measurement": "AUCinf, conjugate", "setting": "[1]; cycle 1, 2.7 mg/kg IV, n = 6", "value": "5202 (23) µg*h/mL"}, {"measurement": "Cmax, conjugate", "setting": "[1]; cycle 1, 2.7 mg/kg IV, n = 6", "value": "63.0 (22) µg/mL"}, {"measurement": "t1/2, conjugate", "setting": "[1]; cycle 1, 2.7 mg/kg IV, n = 6", "value": "2.91 (2.5–3.9) days"}, {"measurement": "Tmax, conjugate", "setting": "[1]; cycle 1, 2.7 mg/kg IV, n = 6", "value": "1 (1–1) h"}, {"measurement": "AUC from zero to infinity, preliminary geometric mean", "setting": "[1]; [4]", "value": "4,400–5,200 µg*h/ml"}, {"measurement": "Serum Cmax, preliminary geometric mean", "setting": "[1]; [4]", "value": "55.5 to 63.0", "unit": "µg/mL"}, {"measurement": "Accumulation in cycle 3", "setting": "[1]; multiple dosing Q3 W", "value": "1.1–1.2 fold"}, {"measurement": "Complete response", "setting": "advanced solid tumors [2]; 2.4 mg/kg Q3W, n = 3", "value": "0 n (%)"}, {"measurement": "Disease control rate", "setting": "advanced solid tumors [2]; 2.4 mg/kg Q3W, n = 3", "value": "3 (100) [NA] n (%) [95% CI]"}, {"measurement": "Objective response rate", "setting": "advanced solid tumors [2]; 2.4 mg/kg Q3W, n = 3", "value": "0 n (%)"}, {"measurement": "Partial response", "setting": "advanced solid tumors [2]; 2.4 mg/kg Q3W, n = 3", "value": "0 n (%)"}, {"measurement": "Progressive disease", "setting": "advanced solid tumors [2]; 2.4 mg/kg Q3W, n = 3", "value": "0 n (%)"}, {"measurement": "Stable disease", "setting": "advanced solid tumors [2]; 2.4 mg/kg Q3W, n = 3", "value": "3 (100) n (%)"}, {"measurement": "PFS estimate at 6 months", "setting": "advanced solid tumors [2]; 2.4 mg/kg Q3W, n = 3", "value": "33.3 [0.9–77.4] %"}, {"measurement": "Median PFS", "setting": "advanced solid tumors [2]; 2.4 mg/kg Q3W, n = 3", "value": "4.1 [2.8–7.1] months"}, {"measurement": "Complete response", "setting": "advanced solid tumors [2]; 2.7 mg/kg Q3W, n = 6", "value": "0 n (%)"}, {"measurement": "Objective response rate", "setting": "advanced solid tumors [2]; 2.7 mg/kg Q3W, n = 6", "value": "2 (33) n (%)"}, {"measurement": "Partial response", "setting": "advanced solid tumors [2]; 2.7 mg/kg Q3W, n = 6", "value": "2 (33) n (%)"}, {"measurement": "Progressive disease", "setting": "advanced solid tumors [2]; 2.7 mg/kg Q3W, n = 6", "value": "1 (17) n (%)"}, {"measurement": "Stable disease", "setting": "advanced solid tumors [2]; 2.7 mg/kg Q3W, n = 6", "value": "3 (50) n (%)"}, {"measurement": "Median duration of overall response", "setting": "advanced solid tumors [2]; 2.7 mg/kg Q3W, n = 6", "value": "8.2 [7.2–9.1] months"}, {"measurement": "PFS estimate at 6 months", "setting": "advanced solid tumors [2]; 2.7 mg/kg Q3W, n = 6", "value": "83.3 [27.3–97.5] %"}, {"measurement": "PFS estimate at 9 months", "setting": "advanced solid tumors [2]; 2.7 mg/kg Q3W, n = 6", "value": "83.3 [27.3–97.5] %"}, {"measurement": "Median PFS", "setting": "advanced solid tumors [2]; 2.7 mg/kg Q3W, n = 6", "value": "10.4 [1.2–12.0] months"}, {"measurement": "Patients with PD", "setting": "advanced solid tumors [2]; N = 9", "value": "one"}, {"measurement": "Patients with SD", "setting": "advanced solid tumors [2]; N = 9", "value": "six"}, {"measurement": "Patients with PR", "setting": "advanced solid tumors [2]; N = 9, both at 2.7‐mg/kg (urothelial, ovarian cancer)", "value": "Two"}, {"measurement": "Reduction of sum of the tumor size", "setting": "advanced solid tumors [2]; single patient, 27 weeks after teliso-v initiation", "value": 73, "unit": "%"}, {"measurement": "Sum of the tumor size", "setting": "advanced solid tumors [2]; single patient, lung metastasis, 27 weeks after teliso-v initiation, baseline 64.4 mm", "value": 17.3, "unit": "mm"}, {"measurement": "Patients with reduction in tumor size from baseline", "setting": "advanced solid tumors [2]; thymic cancer, NSCLC, ovarian cancer, urothelial cancer", "value": "Four"}, {"measurement": "Complete response", "setting": "advanced solid tumors [2]; total, N = 9", "value": "0 n (%)"}, {"measurement": "Objective response rate", "setting": "advanced solid tumors [2]; total, N = 9", "value": "2 (22) n (%)"}, {"measurement": "Overall disease control rate", "setting": "advanced solid tumors [2]; total, N = 9", "value": 89, "unit": "%"}, {"measurement": "PFS estimate at 6 months", "setting": "advanced solid tumors [2]; total, N = 9", "value": "64.0 [23.8–86.6] %"}, {"measurement": "PFS estimate at 9 months", "setting": "advanced solid tumors [2]; total, N = 9", "value": "48.0 [12.3–76.9] %"}, {"measurement": "Median PFS", "setting": "advanced solid tumors [2]; total, N = 9", "value": "7.1 [1.2–10.4] months"}, {"measurement": "Median PFS", "setting": "advanced solid tumors [2]; [5]", "value": 7.1, "unit": "months"}, {"measurement": "Median duration of overall response", "setting": "advanced solid tumors [2]; [6]", "value": "8.2 [7.2–9.1] months"}, {"measurement": "Median duration of overall response", "setting": "advanced solid tumors [2]; total, N = 9, listed as teliso‐v", "value": 8.2, "unit": "months"}, {"measurement": "Partial response", "setting": "advanced solid tumors [2]; [6]", "value": "2 (22) n (%)"}, {"measurement": "Progressive disease", "setting": "advanced solid tumors [2]; [6]", "value": "1 (11) n (%)"}, {"measurement": "Stable disease", "setting": "advanced solid tumors [2]; [6]", "value": "6 (67) n (%)"}, {"measurement": "Partial response", "setting": "advanced solid tumors [2]; [5]", "value": 22, "unit": "%"}, {"measurement": "Progressive disease", "setting": "advanced solid tumors [2]; [5]", "value": 11, "unit": "%"}, {"measurement": "Stable disease", "setting": "advanced solid tumors [2]; [5]", "value": 67, "unit": "%"}, {"measurement": "Tolerability", "setting": "advanced solid tumors [3]; 2.7 mg/kg Q3 W", "value": "well tolerated"}, {"measurement": "Patients with PR", "setting": "advanced solid tumors [3]; c‐Met‐positive NSCLC", "value": "three of 14"}, {"measurement": "Recommended phase 2 dose (RP2D)", "setting": "advanced solid tumors [3]; every 3 weeks, preceding phase 1 study outside of Japan", "value": 2.7, "unit": "mg/kg"}, {"measurement": "Frequency of corneal epithelium disorder", "setting": "advanced solid tumors [3]; non‐Japanese patients, nine of 116, teliso‐v monotherapy, ref data on file", "value": 7.8, "unit": "%"}]}
